Values of other authors in patent US20090023742A1, “THIAZOLONES FOR USE AS PI3 KINASE INHIBITORS” (priority 2006, published 2009).

System: Class I PI3-kinases
Conditions: each of the four Class I PI3-kinases; read-out: IC50 values against each of the various Class I PI3-kinases

Question: Which IC50 does the source give for wortmannin here?
Answer: 1 to 10 nM
